# Data reported in patent US4005073A, “6-Acyl derivatives of aminopenicillanic acid” (priority 1974, dated 1977).
# Read-outs that look alike come from different tables or passages of the source.
# Legend:
# [1] = test system: Escherichia coli; assay: CD50 in the mouse, Escherichia coli; format: in vivo
# Excerpt: (§1) |CD50 (mg/kg) in the mouse
# [2] = test system: Pseudomonas Aeriginmos; assay: CD50 in the mouse, Pseudomonas Aeriginmos; format: in vivo
# Excerpt: as §1
# [3] = test system: S. aureous (penicillin resistant); assay: CD50 in the mouse, S. aureous (penicillin resistant); format: in vivo
# Excerpt: as §1
# [4] = test system: Proteus Vulganis; assay: CD50 in the mouse, Proteus Vulganis; format: in vivo
# Excerpt: as §1
# [5] = Acute Toxicity; details: mouse, in vivo
# Excerpt: as §1
# [6] = Pseudomonas, po, read-out: CD50
Structure (SMILES),"ED50 ([1]; sc, S.C.) [mg/kg]","ED50 ([2]; Pseudomonas, sc, read-out: CD50) [mg/kg]","ED50 ([3]; sc, S.C.) [mg/kg]","ED50 ([4]; sc, S.C.) [mg/kg]",LD50 ([5]; iv) [mg/kg],"ED50 ([1]; po, P.O.) [mg/kg]","ED50 [2, 6] [mg/kg]","ED50 ([2]; sc, Pseudomonas Aeriginmos, mouse, S.C., read-out: CD50 (the source's name)) [mg/kg]","ED50 ([3]; po, P.O.) [mg/kg]",LD50 [5] [mg/kg],"ED50 ([4]; po, P.O.) [mg/kg]",LD50 ([5]; po) [mg/kg]
CC(C)CC(C(=O)O)C(=O)N[C@@H]1C(=O)N2[C@@H]1SC(C)(C)[C@@H]2C(=O)O (some centres unmarked) [(1-Carboxy-3-methyl-butyl)-penicillin di-sodium],2.4,124,34,6.2,2000 to 4000,,,,,,,
CCOC(=O)C(CC(C)C)C(=O)N[C@@H]1C(=O)N2[C@@H]1SC(C)(C)[C@@H]2C(=O)O (some centres unmarked) [(1-[ethoxycarbonyl-3-methylbutyl)]-penicillin sodium],2.1,,22,,2000 to 4000,14,~100,~80,~100,5000,,
CC(C)CC(C(=O)N[C@@H]1C(=O)N2[C@@H]1SC(C)(C)[C@@H]2C(=O)O)C(=O)OCc1ccccc1 (some centres unmarked) [(1-benzyloxycarbonyl-3-methylbutyl)-penicillin sodium],,,,,,9,142,,,,8.9,2500 to 5000
